Data reported in article PMC6753678, “Fueling Open Innovation for Malaria Transmission-Blocking Drugs: Hundreds of Molecules Targeting Early Parasite Mosquito Stages” (Frontiers in Microbiology, 2019).

What was measured:
[1] = tested on: HepG2 cells; conditions: HepG2 value reported with Pf FGAA screen; ref Miguel-Blanco et al 2017; cited from earlier work
[2] = tested on: P. falciparum female gametocytes; design: method as in Miguel-Blanco et al 2017; conditions: TCAMS library screen; ref Miguel-Blanco et al 2017; read-out: Pf FGAA IC50; cited from earlier work
[3] = tested on: P. falciparum female gametocytes; experiment: P. falciparum female gametogenesis assay (Pf FGAA); conditions: 1: YES; 0: NO

Row | SMILES | HepG2 cytoxicity (Pf FGAA screen) [1] [µM] | IC50 [2] [µM] | Is compound selective in assay? Pf FGAA active? [3]
1 | CN1CCCC1CCNCc1cccc(-c2cnc(N3CCCC(C)(C)C3)nc2)c1 (stereo not drawn) [TCMDC-133144] | 4.63 | 1.67 | 0 (0: NO)
2 | O=C(Nc1cccc(-c2cccc(-c3nc4cc(C(F)(F)F)ccc4[nH]3)c2)c1)Nc1ccc(F)c(F)c1F [TCMDC-133229] | 3.43 | 1.4 | 0 (0: NO)
3 | COc1ccccc1C1CCN(C2CCC(NC(=O)c3ccc4[nH]c(-c5ccc(C)cc5)nc4c3)CC2)CC1 (stereo not drawn) [TCMDC-133556] | 3.99 | 2.49 | 0 (0: NO)
4 | CN1CCC(N2CCN(Cc3cccc(-c4ccc(-c5nc6cc(C(F)(F)F)ccc6[nH]5)cc4)c3)CC2)CC1.O=C(O)C(F)(F)F [TCMDC-133842] | 2.44 | 1.09 | 0 (0: NO)
5 | CN1CCCC(CN2CCN(Cc3cccc(-c4ccc(-c5nc6cc(C(F)(F)F)ccc6[nH]5)cc4)c3)CC2)C1.O=C(O)C(F)(F)F (stereo not drawn) [TCMDC-133882] | 4.07 | 1.3 | 0 (0: NO)
6 | O=C(O)C(F)(F)F.c1cc(CN2CCC(CCN3CCCCC3)CC2)cc(-c2csc(-c3nc4ccccc4[nH]3)c2)c1 [TCMDC-133919] | 6.04 | 2.11 | 0 (0: NO)
7 | Cl.NC1CCN(CCc2ccc(NS(=O)(=O)c3ccc(-c4ccccc4)cc3)cc2)CC1 [TCMDC-134085] | 7.17 | 0.75 | 0 (0: NO)
8 | Cn1c(Nc2cc(C(C)(C)C)on2)nc2cc(Nc3ccnc(Nc4cccc(S(=O)(=O)N5CCOCC5)c4)n3)ccc21 [TCMDC-134098] | 8.13 | 1.19 | 0 (0: NO)
9 | Cc1ccc(C(C(=O)Nc2ccc(N3CCNCC3)c(Cl)c2)c2ccccc2)cc1 (stereo not drawn) [TCMDC-134292] | 11.89 | 0.66 | 1 (1: YES)
10 | CC(C)c1ccc(CN2CCC(CNC(=O)c3cc(-c4cccc(C(F)(F)F)c4)cs3)C2)cc1.O=C(O)C(F)(F)F (stereo not drawn) [TCMDC-134435] | 5.13 | 1.3 | 0 (0: NO)
11 | CC(C)c1ccc(CN2CCC(CNC(=O)c3cc(-c4ccccc4F)cs3)C2)cc1.O=C(O)C(F)(F)F (stereo not drawn) [TCMDC-134436] | 9.14 | 1.08 | 0 (0: NO)
12 | CC(C)c1ccc(CN2CCC(CNC(=O)c3cc(-c4cccc(Cl)c4)cs3)C2)cc1.O=C(O)C(F)(F)F (stereo not drawn) [TCMDC-134438] | 6.53 | 0.6 | 1 (1: YES)
13 | COc1cccc(-c2csc(C(=O)NCC3CCN(Cc4ccc(C(C)C)cc4)C3)c2)c1.O=C(O)C(F)(F)F (stereo not drawn) [TCMDC-134439] | 11.51 | 1.37 | 0 (0: NO)
14 | CC(C)c1ccc(CN2CCC(CNC(=O)c3cc(-c4ccc(N(C)C)cc4)cs3)C2)cc1.O=C(O)C(F)(F)F (stereo not drawn) [TCMDC-134440] | 5.85 | 0.71 | 0 (0: NO)
15 | CC(C)(C)c1ccc(CN2CCC(CNC(=O)c3cc(-c4cccc(F)c4)cs3)C2)cc1.O=C(O)C(F)(F)F (stereo not drawn) [TCMDC-134444] | 6.61 | 1.32 | 0 (0: NO)
16 | CCc1ccccc1-c1csc(C(=O)NCC2CCN(Cc3ccc(C(C)(C)C)cc3)C2)c1.O=C(O)C(F)(F)F (stereo not drawn) [TCMDC-134448] | 7.67 | 1.2 | 0 (0: NO)
17 | CN(C)c1ccc(-c2csc(C(=O)NCC3CCN(Cc4ccc(C(C)(C)C)cc4)C3)c2)cc1.O=C(O)C(F)(F)F (stereo not drawn) [TCMDC-134449] | 7.24 | 0.6 | 1 (1: YES)
18 | O=C(NCC1CCN(Cc2cccc(C(F)(F)F)c2)C1)c1cc(-c2cccc(C(F)(F)F)c2)cs1.O=C(O)C(F)(F)F (stereo not drawn) [TCMDC-134483] | 16.22 | 1.65 | 0 (0: NO)
19 | O=C(NCC1CCN(Cc2cccc(C(F)(F)F)c2)C1)c1cc(-c2cccc(F)c2)cs1.O=C(O)C(F)(F)F (stereo not drawn) [TCMDC-134484] | 18.87 | 2.26 | 0 (0: NO)
20 | O=C(NCC1CCN(Cc2cccc(C(F)(F)F)c2)C1)c1cc(-c2cccc(Cl)c2)cs1.O=C(O)C(F)(F)F (stereo not drawn) [TCMDC-134485] | 16.03 | 0.89 | 1 (1: YES)
21 | CN(C)c1ccc(-c2csc(C(=O)NCC3CCN(Cc4cccc(C(F)(F)F)c4)C3)c2)cc1.O=C(O)C(F)(F)F (stereo not drawn) [TCMDC-134486] | 8.18 | 1.56 | 0 (0: NO)

Row | SMILES | HepG2 cytoxicity (Pf FGAA screen) [1] [µM] | IC50 [2] [µM] | Is compound selective in assay? Pf FGAA active? [3]
22 | N#Cc1ccc(-c2ccc(C(=O)NCC3CCN(CCN4CCC(c5ccc6c(c5OCC(N)=O)CCCC6)CC4)CC3)cc2)cc1 [TCMDC-134563] | 6.17 | 1.26 | 0 (0: NO)
23 | NCCCCNc1cc(-c2ccnc(Nc3cccc(Cl)c3)n2)ccn1 [TCMDC-134683] | 0.67 | 1.46 | 0 (0: NO)
24 | O=C(O)C(F)(F)F.O=c1[nH]ccc2nc(N[C@@H]3CCNC3)nc(Nc3cc(Cl)cc(Cl)c3)c12 [TCMDC-135052] | 4.79 | 0.74 | 0 (0: NO)
25 | NCCCNc1nc(Nc2ccc(C(F)(F)F)cc2F)c2c(=O)[nH]ccc2n1.O=C(O)C(F)(F)F [TCMDC-135056] | 9.30 | 1.6 | 0 (0: NO)
26 | COc1ccccc1CNc1ccnc(N2CC(Oc3ccc(F)cc3)C2)n1 [TCMDC-135118] | 73.68 | 4.07 | 1 (1: YES)
27 | CC(C)(C)OC(=O)NCc1ccc(Nc2nnc(-c3cccc(C(=O)NCc4cc(C(F)(F)F)cc(C(F)(F)F)c4)c3)o2)cc1 [TCMDC-135229] | 21.43 | 3.14 | 0 (0: NO)
28 | CN1CCN(Cc2ccc(-c3cc4c(Nc5ccc(OCc6cccc(F)c6)c(Cl)c5)ncnc4s3)[nH]2)CC1 [TCMDC-135458] | 10.98 | 2.41 | 0 (0: NO)
29 | CC(C)N1CCN(C(CN2CCN(CCCOc3ccc(-c4ccccc4)cc3)CC2)c2ccc(F)cc2)CC1.Cl (stereo not drawn) [TCMDC-135497] | 2.29 | 1.42 | 0 (0: NO)
30 | CC(C)N1CCN(C(CN2CCN(CCCOc3ccccc3-c3ccccc3)CC2)c2ccc(F)cc2)CC1.Cl (stereo not drawn) [TCMDC-135499] | 4.32 | 1.41 | 0 (0: NO)
31 | COc1ccc2ccccc2c1CCCCN1CCN(CC(c2ccc(F)cc2)N2CCC2)CC1.O=C(O)C(F)(F)F (stereo not drawn) [TCMDC-135867] | 4.37 | 5.86 | 0 (0: NO)
32 | COc1cc(/C=C(\C2=NC(=O)CS2)c2nc3cccnc3n2C)ccc1O [TCMDC-135917] | 21.14 | 0.72 | 1 (1: YES)
33 | CCn1c(-c2nonc2N)nc2c(-c3cccc(NC(=O)Nc4ccc(Cl)cc4)c3)ncc(OCCCN)c21.O=C(O)C(F)(F)F [TCMDC-136152] | 10.96 | 1.7 | 0 (0: NO)
34 | CCn1c(-c2nonc2N)nc2c(-c3cccc(NC(=O)Nc4ccc(C(F)(F)F)cc4)c3)ncc(OCCCN)c21.O=C(O)C(F)(F)F [TCMDC-136179] | 5.62 | 0.91 | 0 (0: NO)
35 | CCn1c(-c2nonc2N)nc2c(-c3cccc(NC(=O)Nc4ccc5c(c4)CCC5)c3)ncc(OCCCN)c21.O=C(O)C(F)(F)F [TCMDC-136191] | 7.42 | 1.03 | 0 (0: NO)
36 | CCn1c(-c2nonc2N)nc2c(-c3cccc(NC(=O)NC45CC6CC(CC(C6)C4)C5)c3)ncc(OCCCN)c21.O=C(O)C(F)(F)F [TCMDC-136246] | 6.10 | 1.36 | 0 (0: NO)
37 | CN(C)CCCNCc1cn(S(=O)(=O)c2ccccc2Cl)c2ccccc12.Cl [TCMDC-136302] | 11.78 | 1.84 | 0 (0: NO)
38 | Cc1noc(C)c1-c1ccc2c(Nc3nccc4ccccc34)c(C(N)=O)cnc2c1 [TCMDC-136456] | 3.85 | 1.54 | 0 (0: NO)
39 | Cc1cc(C(F)(F)F)cc(-n2ncc(-c3ccc(C(=O)NCc4ccccc4N)cc3)c2N)n1.O=C(O)C(F)(F)F [TCMDC-136658] | 26.82 | 1.46 | 1 (1: YES)
40 | CN1CCN(Cc2ccc(OCc3cccc(COc4ccc(CN5CCN(C)CC5)cc4I)c3)c(I)c2)CC1.Cl [TCMDC-137239] | 5.01 | 1.85 | 0 (0: NO)
41 | CCCCN(CCCC)CCCCNc1c2ccc(Cl)cc2nc2ccc(OC)cc12.Cl [TCMDC-137460] | 4.73 | 1.97 | 0 (0: NO)
